Reference: US8067395B2, “Inhibitors of tyrosine kinases and uses thereof” (Pharmacyclics, Inc., priority 2006, dated 2011)
pKi: −log10 of the molar value.

Biological target: Btk (Homo sapiens, UniProt Q06187)
Experiment: Btk TR-FRET kinase inhibition assay
Assay type: biochemical
Conditions: pH 7.4, ATP at the Km for the kinase, 1 μM peptide substrate, [Btk]total=0.5 nM, read-out: Btk-TRFRET (Ki)
Protocol: Suitable in vitro assays for measuring kinase activity and the inhibition thereof by compounds are known (e.g., see Kuzmic et al. Anal. Biochem. 2000, 286, 45-50).
The following protocol represents an assay for determination of inhibition of kinases under physiological conditions (pH 7.4). Kinase activity was determined using a time-resolved fluorescence resonance energy transfer (TR-FRET) methodology. Measurements were performed in a reaction volume of 50 μL using 96-well assay plates. Kinase enzyme, inhibitor, ATP (at the Km for the kinase), and 1 μM peptide substrate (Biotin-AVLESEEELYSSARQ-NH2) were incubated in a reaction buffer composed of 20 mM Tris, 50 mM NaCl, MgCl2 (5-25 mM depending on the kinase), 1 mM DTT, 0.1 mM EDTA, 0.01% bovine serum albumin, 0.005% Tween-20, and 10% DMSO at pH 7.4 for one hour. The reaction was quenched by the addition of 1.2 equivalents of EDTA (relative to Mg^2+) in 25 μL of 1× Lance buffer (Perkin-Elmer). Streptavidin-APC (Perkin-Elmer) and Eu-labeled p-Tyr100 antibody (Perkin-Elmer) in 1× Lance buffer were added in a 25 μL volume to give final concentrations of 100 nM and 2.5 nM, respectively, and the mixture was allowed to incubate for one hour. The TR-FRET signal was measured on a multimode plate reader with an excitation wavelength of 330 nm and detection wavelengths of 615 nm and 665 nm. Activity was determined by the ratio of the fluorescence at 665 nm to that at 615 nm. For each compound, enzyme activity was measured at various concentrations of compound. Negative control reactions were performed in the absence of inhibitor in replicates of six, and two no-enzyme controls were used to determine baseline fluorescence levels. Inhibition constants were obtained using the program BatchKi (Kuzmic et al. Anal. Biochem. 2000, 286, 45-50). IC50s were obtained according to this equation: IC50={Ki(app)/(1+[ATP]/Km^ATP)}+[E]total/2; for all kinases, [ATP]=Km^ATP, [Btk]total=0.5 nM and [Lck]total=6 nM.

Sequence of Btk (Q06187 whole entry): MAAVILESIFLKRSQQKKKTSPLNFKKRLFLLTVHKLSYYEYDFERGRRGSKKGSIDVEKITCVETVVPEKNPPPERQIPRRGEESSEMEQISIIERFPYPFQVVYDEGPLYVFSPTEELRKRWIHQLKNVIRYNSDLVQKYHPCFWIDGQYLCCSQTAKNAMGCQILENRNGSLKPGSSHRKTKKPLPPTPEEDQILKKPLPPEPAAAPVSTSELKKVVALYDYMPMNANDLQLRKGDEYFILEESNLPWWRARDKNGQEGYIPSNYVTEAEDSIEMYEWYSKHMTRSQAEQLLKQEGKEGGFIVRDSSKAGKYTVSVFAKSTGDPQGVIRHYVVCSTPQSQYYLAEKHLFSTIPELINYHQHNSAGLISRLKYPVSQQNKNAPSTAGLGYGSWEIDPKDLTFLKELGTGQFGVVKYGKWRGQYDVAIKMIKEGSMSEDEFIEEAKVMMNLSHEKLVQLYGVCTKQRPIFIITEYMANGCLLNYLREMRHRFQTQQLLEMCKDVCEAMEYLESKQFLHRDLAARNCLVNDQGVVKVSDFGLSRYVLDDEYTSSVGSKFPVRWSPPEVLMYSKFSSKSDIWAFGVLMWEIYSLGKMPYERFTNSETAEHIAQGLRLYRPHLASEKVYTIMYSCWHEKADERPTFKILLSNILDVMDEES

| SMILES | pKi |
| --- | --- |
| Cc1c(C(O)C#Cc2ccccc2)[nH]c(=O)c2c1ccc1nc(Nc3c(Cl)cccc3Cl)n(C)c12 (centres unmarked) [Compound 41, 2-(2,6-dichlorophenylamino)-1,6-dimethyl-7-(1-hydroxy-3-phenylprop-2-yn-1-yl)-1,8-dihydro-imidazo[4,5-h]isoquinolin-9-one] | 6.00 to 7.00 |
| Cc1cc(Cl)cc(Cl)c1Nc1nc2ccc3c(C)c(CCCN4CCP(=O)(c5ccccc5)CC4)[nH]c(=O)c3c2n1C [Compound 8, 2-(2,4-dichloro-6-methylphenylamino)-1,6-dimethyl-7-[3-(4-oxo-4-phenyl-4λ^5-[1,4]azaphosphinan-1-yl)-propyl]-1,8-dihydro-imidazo[4,5-h]isoquinolin-9-one] | 6.00 to 7.00 |
| Cc1c(C=NNC(=O)c2ccc(N(C)C)cc2)[nH]c(=O)c2c1ccc1nc(Nc3c(Cl)cccc3Cl)n(C)c12 [Compound 46, 4-(N,N-dimethylamino)-benzoic acid [2-(2,6-dichlorophenylamino)-1,6-dimethyl-9-oxo-8,9-dihydro-1H-imidazo[4,5-h]isoquinolin-7-ylmethylene]-hydrazide] | < 6.00 |
| Cc1cc(F)ccc1Nc1nc2ccc3c(C)c(C=CCN4CCN(c5ccc(Cl)cc5)CC4)[nH]c(=O)c3c2n1C [Compound 20, 2-(4-fluoro-2-methylphenylamino)-1,6-dimethyl-7-[3-(N-(4-chlorophenyl)-piperazin-1-yl)-propenyl]-1,8-dihydro-imidazo[4,5-h]isoquinolin-9-one] | > 7.00 |
| C#CCN(C)CC=Cc1[nH]c(=O)c2c(ccc3nc(Nc4ccc(F)cc4C)n(C)c32)c1C [Compound 43, 2-(4-fluoro-2-methylphenylamino)-1,6-dimethyl-7-[3-(N-methyl-N-(prop-2-ynyl)amino)prop-1-enyl]-1,8-dihydro-imidazo[4,5-h]isoquinolin-9-one] | > 7.00 |
| Cc1cc(F)ccc1Nc1nc2ccc3c(C)c(/C=C/CN4CCP(=O)(Cc5ccc(F)cc5)CC4)[nH]c(=O)c3c2n1C [Compound 12, 2-(4-fluoro-2-methylphenylamino)-1,6-dimethyl-7-{3-[4-(4-fluorophenylmethyl)-4-oxo-4λ^5-[1,4]azaphosphinan-1-yl]-propenyl}-1,8-dihydro-imidazo[4,5-h]isoquinolin-9-one] | > 7.00 |
| Cc1cc(F)ccc1Nc1nc2ccc3c(C)c(C=CCN4CCN(C(=O)OC(C)(C)C)CC4)[nH]c(=O)c3c2n1C [Compound 31, 2-(4-fluoro-2-methylphenylamino)-1,6-dimethyl-7-[3-(N-tert-butyloxycarbonylpiperazin-1-yl)-propenyl]-1,8-dihydro-imidazo[4,5-h]isoquinolin-9-one] | > 7.00 |
| Cc1c(C=NNC(=O)c2ccccn2)[nH]c(=O)c2c1ccc1nc(Nc3c(Cl)cccc3Cl)n(C)c12 [Compound 47, pyridine-2-carboxylic acid [2-(2,6-dichlorophenylamino)-1,6-dimethyl-9-oxo-8,9-dihydro-1H-imidazo[4,5-h]isoquinolin-7-ylmethylene]-hydrazide] | 6.00 to 7.00 |
| Cc1cc(F)ccc1Nc1nc2ccc3c(C)c(C=CCN4CCN(c5ncccn5)CC4)[nH]c(=O)c3c2n1C [Compound 27, 2-(4-fluoro-2-methylphenylamino)-1,6-dimethyl-7-[3-(N-(pyrimidin-2-yl)-piperazin-1-yl)-propenyl]-1,8-dihydro-imidazo[4,5-h]isoquinolin-9-one] | > 7.00 |
| Cc1c(C=CCN2CCP(C)(=O)CC2)[nH]c(=O)c2c1ccc1nc(Nc3c(Cl)cccc3Cl)n(C)c12 [Compound 2, 2-(2,6-dichloro-phenylamino)-1,6-dimethyl-7-[3-(4-methyl-4-oxo-4λ^5[1,4]azaphosphinan-1-yl)-propenyl]-1,8-dihydro-imidazo[4,5-h]isoquinolin-9-one] | > 7.00 |
| Cc1cc(F)ccc1Nc1nc2ccc3c(C)c(C=CCN4CCN(Cc5c(Cl)cccc5Cl)CC4)[nH]c(=O)c3c2n1C [Compound 28, 2-(4-fluoro-2-methylphenylamino)-1,6-dimethyl-7-[3-(N-(2,6-dichlorophenylmethyl)-piperazin-1-yl)-propenyl]-1,8-dihydro-imidazo[4,5-h]isoquinolin-9-one] | > 7.00 |
| COc1ccccc1C(=O)NN=Cc1[nH]c(=O)c2c(ccc3nc(Nc4c(Cl)cccc4Cl)n(C)c32)c1C [Compound 49, 2-methoxy-benzoic acid [2-(2,6-dichlorophenylamino)-1,6-dimethyl-9-oxo-8,9-dihydro-1H-imidazo[4,5-h]isoquinolin-7-ylmethylene]-hydrazide] | 6.00 to 7.00 |
| Cc1c(C=CCN2CCN(c3ccccc3)CC2)[nH]c(=O)c2c1ccc1nc(Nc3c(Cl)cccc3Cl)n(C)c12 [Compound 18, 2-(2,6-dichlorophenylamino)-1,6-dimethyl-7-[3-(N-phenylpiperazin-1-yl)-propenyl]-1,8-dihydro-imidazo[4,5-h]isoquinolin-9-one] | > 7.00 |
| Cc1c(C=CS(=O)(=O)c2ccccc2)[nH]c(=O)c2c1ccc1nc(Nc3c(Cl)cccc3Cl)n(C)c12 [Compound 37, 2-(2,6-dichlorophenylamino)-1,6-dimethyl-7-[2-(phenylsulfonyl)-ethenyl]-1,8-dihydro-imidazo[4,5-h]isoquinolin-9-one] | > 7.00 |

Continued, values first:

| pKi | SMILES |
| --- | --- |
| > 7.00 | Cc1ccc(F)cc1Nc1nc2ccc3c(C)c(C=CCN4CCP(=O)(c5ccccc5)CC4)[nH]c(=O)c3c2n1C [Compound 4, 2-(3-fluoro-6-methylphenylamino)-1,6-dimethyl-7-[3-(4-oxo-4-phenyl-4λ^5-[1,4]azaphosphinan-1-yl)-propenyl]-1,8-dihydro-imidazo[4,5-h]isoquinolin-9-one] |
| > 7.00 | COc1ccc(P2(=O)CCN(CC=Cc3[nH]c(=O)c4c(ccc5nc(Nc6cc(F)ccc6C)n(C)c54)c3C)CC2)cc1 [Compound 11, 2-(3-fluoro-6-methylphenylamino)-1,6-dimethyl-7-[3-(4-oxo-4-(4-methoxyphenyl)-4λ^5-[1,4]azaphosphinan-1-yl)-propenyl]-1,8-dihydro-imidazo[4,5-h]isoquinolin-9-one] |
| > 7.00 | Cc1cc(F)ccc1Nc1nc2ccc3c(C)c(C=CCN4CCN(S(=O)(=O)c5ccccc5)CC4)[nH]c(=O)c3c2n1C [Compound 29, 2-(4-fluoro-2-methylphenylamino)-1,6-dimethyl-7-[3-(N-phenylsulfonylpiperazin-1-yl)-propenyl]-1,8-dihydro-imidazo[4,5-h]isoquinolin-9-one] |
| 6.00 to 7.00 | Cc1ccc(F)cc1Nc1nc2ccc3c(C)c(C=CC(=O)N4CCP(=O)(c5ccccc5)CC4)[nH]c(=O)c3c2n1C [Compound 7, 2-(3-fluoro-6-methylphenylamino)-1,6-dimethyl-7-{2-[(4-oxo-4-phenyl-4λ^5-[1,4]azaphosphinan-1-yl)-carbonyl]ethenyl}-1,8-dihydro-imidazo[4,5-h]isoquinolin-9-one] |
| 6.00 to 7.00 | Cc1cc(F)ccc1Nc1nc2ccc3c(C)c(CCCN4CCP(=O)(c5ccccc5)CC4)[nH]c(=O)c3c2n1C [Compound 9, 2-(4-fluoro-2-methylphenylamino)-1,6-dimethyl-7-[3-(4-oxo-4-phenyl-4λ^5-[1,4]azaphosphinan-1-yl)-propyl]-1,8-dihydro-imidazo[4,5-h]isoquinolin-9-one] |
| 6.00 to 7.00 | Cc1cc(F)ccc1Nc1nc2ccc3c(CC(=O)N4CCP(=O)(c5ccc(F)cc5)CC4)c(C)[nH]c(=O)c3c2n1C [Compound 50, 2-(4-fluoro-2-methylphenylamino)-1,7-dimethyl-6-{2-[4-(4-fluorophenyl)-4-oxo-4λ^5[1,4]azaphosphinan-1-yl]-2-oxoethyl}-1,8-dihydro-imidazo[4,5-h]isoquinolin-9-one] |
| > 7.00 | Cc1cc(F)ccc1Nc1nc2ccc3c(C)c(C=CCN4CCN(C(=O)c5ccccc5)CC4)[nH]c(=O)c3c2n1C [Compound 22, 2-(4-fluoro-2-methylphenylamino)-1,6-dimethyl-7-[3-(N-phenylcarbonylpiperazin-1-yl)-propenyl]-1,8-dihydro-imidazo[4,5-h]isoquinolin-9-one] |
| > 7.00 | Cc1cc(F)ccc1Nc1nc2ccc3c(C)c(C=CCN4CCN(c5ccccc5)CC4)[nH]c(=O)c3c2n1C [Compound 19, 2-(4-fluoro-2-methylphenylamino)-1,6-dimethyl-7-[3-(N-phenylpiperazin-1-yl)-propenyl]-1,8-dihydro-imidazo[4,5-h]isoquinolin-9-one] |
| > 7.00 | Cc1cc(Cl)cc(Cl)c1Nc1nc2ccc3c(C)c(C=CCN4CCP(=O)(c5ccccc5)CC4)[nH]c(=O)c3c2n1C [Compound 6, 2-(2,4-dichloro-6-methylphenylamino)-1,6-dimethyl-7-[3-(4-oxo-4-phenyl-4λ^5-[1,4]azaphosphinan-1-yl)-propenyl]-1,8-dihydro-imidazo[4,5-h]isoquinolin-9-one] |
